Measurements from patent US4073902A, “O-Substituted 7β-amino-3-cephem-3-ol-4-carboxylic acid compounds” (priority 1972, dated 1978).

Experiments:
E. coli 205 R^+TEM = assay: oral ED50, systemic infection in mice; conditions: Escherichia coli, in Mus musculus, read-out: oral ED50
Excerpt: (§4) **two doses; the first administered immediately after infection, the

[1] = test system: Diplococcus pneumoniae 111/84; assay: oral ED50, systemic infection in mice; conditions: Streptococcus pneumoniae, 111/84, in Mus musculus, read-out: oral ED50
E. coli 5 = assay: oral ED50, systemic infection in mice; conditions: Escherichia coli, 5, in Mus musculus, read-out: oral ED50
Excerpt: as §4

[2] = test system: systemic infections due to various bacterial strains; conditions: female MF 2 mice; in words, compared with II, III, IV
[3] = test system: Pseudomonas aeruginosa 799; assay: oral ED50, systemic infection in mice; conditions: Pseudomonas aeruginosa, 799, in Mus musculus, read-out: oral ED50
[4] = test system: Klebsiella pneumoniae 327; assay: oral ED50, systemic infection in mice; conditions: Klebsiella pneumoniae, 327, in Mus musculus, read-out: oral ED50
S. pyogenes Aronson = assay: oral ED50, systemic infection in mice; conditions: Streptococcus pyogenes, in Mus musculus, read-out: oral ED50
in vivo = conditions: mouse, in vivo
Excerpt: (§1) ^a calcultated according to Miller-Tainter ± standard error (Proc.
(§2) ^b calculated according to the Probit-method with 95% confidence
(§3) limits (Goulden A., Methods of Statistical Analysis, J. Wiley and Sons, […]

mice = assay: in vivo; conditions: mice; in words, compared with II and IV
Excerpt: as §1, §2, §3

solubility in urin = assay type: physicochemical; conditions: in words, compared with compound II
Shigella flexneri 11836 = assay: oral ED50, systemic infection in mice; assay type: in vivo, Shigella flexneri; female MF 2 mice; conditions: p.o., 2 doses
P. vulgaris 1076 = assay: oral ED50, systemic infection in mice; conditions: Proteus vulgaris, 1076, in Mus musculus, read-out: oral ED50
Escherichia coli 205 = assay: oral ED50, systemic infection in mice; conditions: Escherichia coli, 205, in Mus musculus, read-out: oral ED50
[5] = test system: S. aureus 102 (methicillin res.); assay: oral ED50, systemic infection in mice; conditions: Staphylococcus aureus, in Mus musculus, read-out: oral ED50
Excerpt: (§5) *single dose of antibiotic administered immediately after infection

[6] = test system: Staphylococcus aureus 10B; assay: oral ED50, systemic infection in mice; conditions: in Mus musculus, read-out: oral ED50
Excerpt: as §5

E. coli 2018 = assay: oral ED50, systemic infection in mice; conditions: Escherichia coli, 2018, in Mus musculus, read-out: oral ED50
Excerpt: as §4

[7] = test system: Streptococcus pyogenes 38; assay: oral ED50, systemic infection in mice; conditions: Streptococcus pyogenes, 38, in Mus musculus, 3 h, read-out: oral ED50
E. coli 1239/19 = assay: oral ED50, systemic infection in mice; conditions: Escherichia coli, 1239/19, in Mus musculus, read-out: oral ED50
Excerpt: as §4

Serratia marcescens 344 = assay: oral ED50, systemic infection in mice; conditions: Serratia marcescens, 344, in Mus musculus, read-out: oral ED50
[8] = test system: Enterobacter cloacae P 99; assay: oral ED50, systemic infection in mice; conditions: P99, in Mus musculus, read-out: oral ED50
S. typhimurium 277 = assay: oral ED50, systemic infection in mice; conditions: Salmonella enterica, in Mus musculus, read-out: oral ED50
E. coli 2018 R^+TEM = assay: oral ED50, systemic infection in mice; conditions: Escherichia coli, in Mus musculus, read-out: oral ED50
Excerpt: as §4

P. rettgeri 856 = assay: oral ED50, systemic infection in mice; conditions: Providencia rettgeri, 856, in Mus musculus, read-out: oral ED50
bactericidal activity = conditions: in words, compared with cephradin (III) and cephalexin (IV)
E. coli 16 = assay: oral ED50, systemic infection in mice; conditions: Escherichia coli, 16, in Mus musculus, read-out: oral ED50
Excerpt: as §4

S. aureus 2999 i^+ p^+ = assay: oral ED50, systemic infection in mice; conditions: Staphylococcus aureus, in Mus musculus, read-out: oral ED50
Excerpt: as §5

Pasteurella multocid 341 = assay: oral ED50, systemic infection in mice; conditions: Pasteurella, 341, in Mus musculus, read-out: oral ED50
[9] = test system: Salmonella typhimurium 273; assay: oral ED50, systemic infection in mice; conditions: Salmonella enterica, in Mus musculus, read-out: oral ED50
Excerpt: as §4

P. mirabilis 774 = assay: oral ED50, systemic infection in mice; conditions: Proteus mirabilis, 774, in Mus musculus, read-out: oral ED50
E. coli 9 = assay: oral ED50, systemic infection in mice; conditions: Escherichia coli, 9, in Mus musculus, read-out: oral ED50
Excerpt: as §4

proteus morganii 2359 = assay: oral ED50, systemic infection in mice; conditions: Morganella morganii, 2359, in Mus musculus, read-out: oral ED50
K. pneumoniae 329 = assay: oral ED50, systemic infection in mice; conditions: Klebsiella pneumoniae, 329, in Mus musculus, read-out: oral ED50
E. coli 9-25.1. = assay: oral ED50, systemic infection in mice; conditions: Escherichia coli, 925.1., in Mus musculus, read-out: oral ED50
Excerpt: as §4

E. coli 2 = assay: oral ED50, systemic infection in mice; conditions: Escherichia coli, 2, in Mus musculus, read-out: oral ED50
Excerpt: as §4

SMILES | ED50 (E. coli 205 R^+TEM) | ED50 [1] | ED50 (E. coli 5) | ED50 [3] | ED50 [4] | ED50 (S. pyogenes Aronson) | ED50 (Shigella flexneri 11836) | ED50 (P. vulgaris 1076) | ED50 (Escherichia coli 205) | ED50 [5] | ED50 [6] | ED50 (E. coli 2018) | ED50 [7] | ED50 (E. coli 1239/19) | ED50 (Serratia marcescens 344) | ED50 [8] | ED50 (S. typhimurium 277) | ED50 (E. coli 2018 R^+TEM) | ED50 (P. rettgeri 856) | ED50 (E. coli 16) | further results
COC1=C(C(=O)O)N2C(=O)[C@@H](NC(=O)[C@H](N)C3=CCC=CC3)[C@H]2SC1 [compound I] | 7.3 mg/kg | 8.5 mg/kg | 7.8 mg/kg | > 300 mg/kg | 40 mg/kg | 1 mg/kg | 25 mg/kg | 20 mg/kg | 9.5 mg/kg | 17.5 mg/kg | 3.3 mg/kg | 3 mg/kg | 1 mg/kg | 4 mg/kg | > 300 mg/kg | > 300 mg/kg | 30 mg/kg | 14 mg/kg | 6.8 mg/kg | > 300 mg/kg | chemotherapeutic activity [2]: surprisingly stronger chemotherapeutic activity; LD50 (in vivo; ip): 7090 mg/kg; LD50 (in vivo; po): > 6000 mg/kg; acute toxicity (mice): more favourable as the acute toxicity of compounds II and IV; solubility in urin (solubility in urin): higher as compared to compound II; bactericidal activity (bactericidal activity): surprisingly stronger bactericidal activity as compared to cephradin (III) and cephalexin (IV); ED50 (S. aureus 2999 i^+ p^+): 25 mg/kg; ED50 (Pasteurella multocid 341): 17 mg/kg; ED50 [9]: 30 mg/kg; ED50 (P. mirabilis 774): 16 mg/kg; ED50 (E. coli 9): ~30 mg/kg; ED50 (proteus morganii 2359): > 300 mg/kg; ED50 (K. pneumoniae 329): 17 mg/kg; ED50 (E. coli 9-25.1.): ≥ 300 mg/kg; ED50 (E. coli 2): ~140 mg/kg
CC1=C(C(=O)O)N2C(=O)[C@@H](NC(=O)[C@H](N)c3ccccc3)[C@H]2SC1 [cephalexin] | 40 mg/kg | 30 mg/kg | 28 mg/kg | > 1000 mg/kg | 105 mg/kg | 6.3 mg/kg | 7 mg/kg | 45 mg/kg | 40 mg/kg | 120 mg/kg | 6.6 mg/kg | 13 mg/kg | 6 mg/kg | 20 mg/kg | > 300 mg/kg | > 300 mg/kg | 100 mg/kg | 25 mg/kg | 15 to 30 mg/kg | > 300 mg/kg | ED50 (S. aureus 2999 i^+ p^+): 85 mg/kg; ED50 (Pasteurella multocid 341): 66 mg/kg; ED50 [9]: 140 mg/kg; ED50 (P. mirabilis 774): 80 mg/kg; ED50 (E. coli 9): 90 mg/kg; ED50 (proteus morganii 2359): > 1000 mg/kg; ED50 (K. pneumoniae 329): 47 mg/kg; ED50 (E. coli 9-25.1.): > 300 mg/kg; ED50 (E. coli 2): > 1000 mg/kg
CC1=C(C(=O)O)N2C(=O)[C@@H](NC(=O)[C@H](N)C3=CCC=CC3)[C@H]2SC1 [cephradine] | 16 mg/kg | 40 mg/kg | > 30 mg/kg | > 300 mg/kg | 250 mg/kg | 5.5 mg/kg | 11 mg/kg | 80 mg/kg | 52 mg/kg | 76 mg/kg | 6 mg/kg | 13 mg/kg | 8 mg/kg | ~25 mg/kg | > 1000 mg/kg | > 1000 mg/kg | 110 mg/kg | 38 mg/kg | ≥ 30 mg/kg | > 300 mg/kg | ED50 (S. aureus 2999 i^+ p^+): 32 mg/kg; ED50 (Pasteurella multocid 341): 110 mg/kg; ED50 [9]: 80 mg/kg; ED50 (P. mirabilis 774): ~50 mg/kg; ED50 (E. coli 9): ≥ 300 mg/kg; ED50 (proteus morganii 2359): > 1000 mg/kg; ED50 (K. pneumoniae 329): 120 mg/kg; ED50 (E. coli 9-25.1.): > 300 mg/kg; ED50 (E. coli 2): > 300 mg/kg
COC1=C(C(=O)O)N2C(=O)[C@@H](NC(=O)[C@H](N)c3ccccc3)[C@H]2SC1 [compound II] | 48 mg/kg | 16 mg/kg | 13 mg/kg | > 300 mg/kg | 75 mg/kg | 2.5 mg/kg | 20 mg/kg | 25 mg/kg | 22 mg/kg | 100 mg/kg | 6 mg/kg | 15 mg/kg | 7.5 mg/kg | 12 mg/kg | > 1000 mg/kg | > 300 mg/kg | 65 mg/kg | 38 mg/kg | 14 mg/kg | > 300 mg/kg | LD50 (in vivo; ip): 3800 ± 290 mg/kg; LD50 (in vivo; po): > 6000 mg/kg; ED50 (S. aureus 2999 i^+ p^+): 210 mg/kg; ED50 (Pasteurella multocid 341): ~20 mg/kg; ED50 [9]: 60 mg/kg; ED50 (P. mirabilis 774): 54 mg/kg; ED50 (E. coli 9): 210 mg/kg; ED50 (proteus morganii 2359): > 300 mg/kg; ED50 (K. pneumoniae 329): 35 mg/kg; ED50 (E. coli 9-25.1.): > 300 mg/kg; ED50 (E. coli 2): > 1000 mg/kg
